Data taken from patent US20260216179A1, “1,5-NAPHTHYRIDINE DERIVATIVES AS KRAS ONCOPROTEIN INHIBITORS” (Beta Pharma, Inc., priority 2022, published 2026).
Like-named read-outs stand apart in the source and are kept apart here. One block for each compound: values may come before it.

Legend:
KRAS G12C [1] = molecular target: T1, KRAS G12C (Homo sapiens, UniProt P01116, G12C); test: NanoBRET target engagement cellular assay in transiently transfected HEK293 cells; format: cell-based; set-up: expressed in transfected cells; host or cells: HEK293, transiently transfected; conditions: RAS tracer K2 1 μM, 2 hours at 37° C.
Procedure: KRAS G12C cellular activity was determined in a target engagement cellular assay (NanoBRET™) in transiently transfected HEK293 cells by Reaction Biology Corporation (RBC), 1 Great Valley Parkway, Suite 2 Malvern, PA 19355, USA. HEK293 were cultivated to 70-80% confluence prior to the assay followed by trypsinizing and collection of the cells. BI-2852 was used as the KRAS G12C reference compound. Each test compound solution was delivered from a compound source plate to the wells of 384-well white non-binding surface plate by an Echo 550 prior to the assay.
A 10 μg/mL solution of DNA in Opti-MEM was prepared without serum that consisted of 1 μg LgBiT®-KRAS (G12C)-NanoLuc fusion vector, 1 μg SmBIT®-KRAS (G12C)-NanoLuc fusion vector and 8 μg transfection carrier DNA. This mixture was subsequently treated with 30 μL of FuGENE HD Transfection Reagent into each milliliter of DNA mixture to form a lipid: DNA complex. The resulting mixture was then gently mixed by inversion and incubated at ambient temperature for 20 minutes to allow complexes to form. A mixture of 1 part of lipid: DNA complex with 20 parts of suspended HEK293 cells was added to a sterile conical tube and mixed gently by inversion. The cells+lipid: DNA complex mixture was then added to a sterile tissue culture dish and incubated for 24 hours. The medium was removed from the dish via aspiration followed by trypsinizing and allowing the cells to dissociate from the tissue culture dish. The trypsin was subsequently neutralized by using medium containing serum and centrifugation at 200×g for 5 minutes to pellet the cells in the conical tube. The cell density was adjusted to 2×10^5 cells/mL in Opti-MEM without phenol red. One part of Complete 20× NanoBRET™ RAS Tracer Reagent was dispensed to 20 parts of cells in the conical tube and mixed gently by inversion. The resulting cell suspension was dispensed into a white, 384-well NBS plate containing the test compounds (starting at 10 μM, 10-dose with 3-fold dilution) at 37° C., 5% CO2 for 2 hours. The final concentration for RAS tracer K2 was 1 μM. […]
Freshly prepared substrate solution (3×) in the assay medium was added to each well of the 384-well NBS plate and incubated for 3 minutes at room temperature. The donor emission wavelength (460 nm) and acceptor emission wavelength (600 nm) were measured using an Envision 2104 plate reader. […] The BRET ratio was calculated using the following equation: BRET Ratio= [(Acceptor sample÷Donor sample)−(Acceptor no-tracer control[…]Donor no-tracer control)]. The normalized BRET response (%) was calculated by the following equation: (BRET ratio of test compound/BRET ratio of DMSO control)*100%. The IC50 curves were plotted and IC50 values were calculated with GraphPad Prism 4 based on a sigmoidal dose-response equation.
Target sequence in this assay (P01116 1-186 isoform P01116-2 G12C limits assumed): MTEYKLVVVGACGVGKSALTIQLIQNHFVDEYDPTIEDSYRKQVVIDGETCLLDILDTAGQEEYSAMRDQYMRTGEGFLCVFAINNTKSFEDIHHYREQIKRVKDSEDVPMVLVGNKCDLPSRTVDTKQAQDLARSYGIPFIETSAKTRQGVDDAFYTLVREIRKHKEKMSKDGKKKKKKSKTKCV
Target sequence in this assay (P01116 1-186 isoform P01116-2 G12C limits assumed): as above

KRAS G12C [2] = molecular target: T1, KRAS G12C; test: KRAS G12C/SOS1 nucleotide exchange assay (Bodipy-GDP to GTP exchange); format: biochemical; set-up: KRAS G12C or KRAS G12D (aa 2-169, expressed in E. coli); His-tag (TEV cleavable) (N); purchased Reaction Biology Corporation (RBC), which ran the assay MSC-11-502 (SOS1 only; none given for KRAS); host or cells: E. coli; conditions: SOS1-mediated Bodipy-GDP/KRAS G12C exchange; dRFU analysis method for covalent inhibitors; 30 min pre-incubation at RT; 0.5% DMSO
Procedure: (§1) The biological activity of the Examples was determined in a KRAS
(§2) The assay evaluates the SOS1-mediated Bodipy-GDP to GTP exchange observed with KRAS G12C and KRAS G12D.
(§3) Reaction Buffer: 40 mM HEPES 7.4, 10 mM MgCl2, 1 mM DTT 0.002% Triton X100, 0.5% DMSO.
(§4) • 1. Deliver 10 μL of 1.5× KRAS solution in freshly prepared reaction buffer to reaction wells. • 2. Deliver compounds in 100% DMSO into buffer using acoustic technology (Echo550; nanoliter range). • 3. Incubate compounds with KRAS for 30 minutes at room temperature. • 4. Prepare 3× (SOS1+GTP) solution in reaction buffer. • 5. Deliver 5 μL of SOS1+GTP solution into reactions wells (deliver GTP only to column 1 for no SOS1 control). • 6.
Data Analysis: The fluorescence data was normalized using the equation below and fitted to “one phase exponential decay” equation using GraphPad prism software. The plateau was fixed to zero (use for non-covalent inhibitors) and rate ×1000 was used to calculate the IC50 values.
(§5) where Yraw is defined as fluorescence at time t, Ao is the average initial fluorescence with no SOS1, and Mis the minimum fluorescence at the end of the reaction at the maximum SOS1.
The background subtracted signals (no SOS1 protein wells were used as background) were converted to % activity relative to DMSO controls. Data was analyzed using GraphPad Prism 4 with “sigmoidal dose-response (variable slope)”; 4 parameters with Hill Slope. The constraints were bottom (constant equal to 0) and top (must be less than 120).
Target sequence in this assay (P01116 2-169 G12C): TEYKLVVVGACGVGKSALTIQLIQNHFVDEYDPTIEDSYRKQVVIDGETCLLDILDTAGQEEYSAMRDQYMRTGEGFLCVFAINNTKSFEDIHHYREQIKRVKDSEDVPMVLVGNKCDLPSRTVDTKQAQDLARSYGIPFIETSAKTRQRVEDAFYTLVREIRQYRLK

KRAS G12D = molecular target: T2, KRAS G12D (Homo sapiens, UniProt P01116, G12D); test: KRAS G12D/SOS1 nucleotide exchange assay (Bodipy-GDP to GTP exchange); format: biochemical; conditions: SOS1-mediated Bodipy-GDP/KRAS G12D exchange; rate constant method (plateau = 0) for reversible inhibitors; 30 min pre-incubation at RT; 0.5% DMSO
T2 construct: KRAS G12C or KRAS G12D (aa 2-169, expressed in E. coli); His-tag (TEV cleavable) (N); purchased Reaction Biology Corporation (RBC), which ran the assay MSC-11-502 (SOS1 only; none given for KRAS); host or cells: E. coli
Procedure: as §1, §2
The compound pre-incubation time was 30 min at RT and the curve fits were performed when the activities at the highest concentration of compounds were less than 65%.
as §3
as §4, with “Deliver 5 μL of SOS1+GTP solution into reactions wells (deliver GTP only to column 1 for no SOS1 control). • 6.” left out
Data Analysis: The fluorescence data was normalized using the equation below and fitted to “one phase exponential decay” equation using GraphPad prism software. […]
as §5
The background subtracted signals (no SOS1 protein wells were used as background) were converted to % activity relative to DMSO controls. Data was analyzed using GraphPad Prism 4 with “sigmoidal dose-response (variable slope)”; 4 parameters with Hill Slope. […]

MIA PaCa-2 cells = test: CellTiter-Glo viability assay; format: cell-based; conditions: Homo sapiens, 72 hours, read-out: CTG Assay IC50 Values
Procedure: The reference compound staurosporine was purchased from Sigma-Aldrich (Saint Louis, MI). CellTiter-Glo® 2.0 Luminescent cell viability assay reagent was purchased from Promega (Madison, WI). MIA PaCa-2 cell line was purchased from American Type Culture Collection (Manassas, VA). MIA PaCa-2 cells were cultured in DMEM containing 10% FBS, 2.5% horse serum, 100 μg/ml of penicillin and 100 μg/ml of streptomycin. Cultures were maintained at 37° C. in a humidified atmosphere of 5% CO2 and 95% air.
Test compounds and reference compound, staurosporine, were diluted in DMSO solution with 10-dose and 3-fold dilution in a source plate starting at 10 mM. • 2. 25 nL of test compounds or 25 nL of staurosporine was delivered from the source plate to each well of the 384-well cell culture plate by Echo 550. • 3. 25 μL of culture media containing 2000 cells was added to each of the wells of the cell culture plate in duplicate. • 4. The cells were incubated with the compounds at 37° C., 5% CO2 for 72 hours. • 5. […] Luminescence was recorded by Envision 2104 Multilabel Reader (PerkinElmer, Santa Clara, CA). The number of viable cells in culture was determined based on quantitation of the ATP present in each culture well. • 8. The IC50 curves were plotted and IC50 values were calculated using the GraphPad Prism 4 program based on a sigmoidal dose-response equation

[3] = PK profile in male CD1 mice; format: in vivo; conditions: for MRT inf: read-out: MRT0-inf; for MRT last: read-out: MRT0-last
From the text: PK Profile in male CD1 mice:

[4] = 3 mg/kg, i.v., single dose, mean plasma
[5] = 30 mg/kg, p.o., single dose, mean plasma
[6] = mouse, iv, 3 mg/kg, i.v., single dose, mean plasma
[7] = mouse, iv, 3 mg/kg, single dose, mean plasma
[8] = mouse, po, 30 mg/kg, p.o., single dose, mean plasma
[9] = mouse, po, 30 mg/kg, single dose, mean plasma

T2 sequence (P01116 2-169 G12D): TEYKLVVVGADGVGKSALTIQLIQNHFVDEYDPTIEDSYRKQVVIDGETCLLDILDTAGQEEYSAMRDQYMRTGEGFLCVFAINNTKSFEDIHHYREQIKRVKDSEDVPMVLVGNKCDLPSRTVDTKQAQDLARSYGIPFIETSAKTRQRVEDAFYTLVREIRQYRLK

- IC50 (KRAS G12C [1]): 320 nM
SMILES: Cn1cnc(Cn2ccc3ccc(CNCc4[nH]c5ccccc5c4[C@H]4NC(=O)c5ccc(O)cc54)cc32)c1 [BI-2852, reference compound]

- IC50 (KRAS G12C [1]): 4.4 nM
- IC50 (KRAS G12C [2]): 38 nM
SMILES: C=CC(=O)N1CCN(c2cc(OC[C@@H]3CCCN3C)nc3cc(-c4cccc5cccc(Cl)c45)cnc23)C[C@@H]1CC#N [Example 1, 2-((S)-1-Acryloyl-4-(7-(8-chloronaphthalen-1-yl)-2-(((S)-1-methylpyrrolidin-2-yl)methoxy)-1,5-naphthyridin-4-yl)piperazin-2-yl)acetonitrile]

- IC50 (KRAS G12C [2]): 130 nM
SMILES: C=C(F)C(=O)N1CCN(c2cc(OC[C@@H]3CCCN3C)nc3cc(-c4cccc5cccc(Cl)c45)cnc23)C[C@@H]1CC#N [Example 2, 2-((S)-4-(7-(8-Chloronaphthalen-1-yl)-2-(((S)-1-methylpyrrolidin-2-yl)methoxy)-1,5-naphthyridin-4-yl)-1-(2-fluoroacryloyl)piperazin-2-yl)acetonitrile]

- IC50 (KRAS G12D): 1500 nM
SMILES: CC(=O)c1c(F)ccc2cc(O)cc(-c3cnc4c(N5C[C@H]6CC[C@@H](C5)N6)cc(OC[C@@]56CCCN5C[C@H](F)C6)nc4c3)c12 [Example 3, 1-(8-(8-((1R,5S)-3,8-Diazabicyclo[3.2.1]octan-3-yl)-6-(((2R,7aS)-2-fluorotetrahydro-1H-pyrrolizin-7a(5H)-yl)methoxy)-1,5-naphthyridin-3-yl)-2-fluoro-6-hydroxynaphthalen-1-yl)ethan-1-one]

- IC50 (KRAS G12D): 1000 nM
SMILES: Oc1cc(-c2cnc3c(N4C[C@H]5CC[C@@H](C4)N5)cc(OCC45CCCN4CCC5)nc3c2)c2ccccc2c1 [Example 4, 4-(8-((1R,5S)-3,8-Diazabicyclo[3.2.1]octan-3-yl)-6-((tetrahydro-1H-pyrrolizin-7a(5H)-yl)methoxy)-1,5-naphthyridin-3-yl)naphthalen-2-ol]

- IC50 (MIA PaCa-2 cells): 2880 nM
- AUCExtra [3, 4]: 2.52%
- AUMCExtra [3, 4]: 14.3%
- Tlast [3, 4]: 8.00 h
- AUCExtra [3, 5]: 0.315%
- AUMCExtra [3, 5]: 1.85%
- Tlast [3, 5]: 24.0 h
- MRT inf [3, 6]: 1.77 h
- MRT last [3, 6]: 1.56 h
- Vd ([3]; mouse, iv, 3 mg/kg, i.v., single dose, mean plasma, read-out: Vdss): 7.7 L/kg
- AUC(0-inf) [3, 7]: 691 ng·h/mL
- AUC(0-t) [3, 7]: 673 ng·h/mL
- C0 [3, 7]: 800 ng/mL
- clearance [3, 7]: 72.4 mL/min/kg
- half-life [3, 7]: 1.42 h
- bioavailability ([3]; mouse, plasma, oral, 30 mg/kg, p.o., single dose vs 3 mg/kg i.v.): 21.7%
- MRT inf [3, 8]: 4.79 h
- MRT last [3, 8]: 4.72 h
- AUC(0-inf) [3, 9]: 1500 ng·h/mL
- AUC(0-t) [3, 9]: 1500 ng·h/mL
- Cmax [3, 9]: 249 ng/mL
- Tmax [3, 9]: 1 h
- half-life [3, 9]: 2.85 h
- IC50 (KRAS G12C [1]): < 0.5 nM
- IC50 (KRAS G12C [2]): 38 nM
SMILES: C=CC(=O)N1CCN(c2cc(OCC34CCCN3CCC4)nc3cc(-c4cccc5cccc(Cl)c45)cnc23)C[C@@H]1CC#N [Example 5, (S)-2-(1-acryloyl-4-(7-(8-chloronaphthalen-1-yl)-2-((tetrahydro-1H-pyrrolizin-7a(5H)-yl)methoxy)-1,5-naphthyridin-4-yl)piperazin-2-yl)acetonitrile]

- IC50 (KRAS G12C [1]): 334 nM
- IC50 (KRAS G12C [2]): 59 nM
SMILES: C=C(F)C(=O)N1CCN(c2cc(OCC34CCCN3CCC4)nc3cc(-c4cccc5cccc(Cl)c45)cnc23)C[C@@H]1CC#N [Example 6, (S)-2-(4-(7-(8-chloronaphthalen-1-yl)-2-((tetrahydro-1H-pyrrolizin-7a(5H)-yl)methoxy)-1,5-naphthyridin-4-yl)-1-(2-fluoroacryloyl)piperazin-2-yl)acetonitrile]

- IC50 (KRAS G12C [2]): 31 nM
SMILES: C=CC(=O)N1CCN(c2cc(OC[C@@]34CCCN3C[C@H](F)C4)nc3cc(-c4cccc5cccc(Cl)c45)cnc23)C[C@@H]1CC#N [Example 7, 2-((S)-1-acryloyl-4-(7-(8-chloronaphthalen-1-yl)-2-(((2R,7aS)-2-fluorotetrahydro-1H-pyrrolizin-7a(5H)-yl)methoxy)-1,5-naphthyridin-4-yl)piperazin-2-yl)acetonitrile]

- IC50 (KRAS G12C [2]): 65 nM
SMILES: C=C(F)C(=O)N1CCN(c2cc(OC[C@@]34CCCN3C[C@H](F)C4)nc3cc(-c4cccc5cccc(Cl)c45)cnc23)C[C@@H]1CC#N [Example 8, 2-((S)-4-(7-(8-chloronaphthalen-1-yl)-2-(((2R,7aS)-2-fluorotetrahydro-1H-pyrrolizin-7a(5H)-yl)methoxy)-1,5-naphthyridin-4-yl)-1-(2-fluoroacryloyl)piperazin-2-yl)acetonitrile]

SMILES: CN[C@@H]1C[C@H]2O[C@@](C)([C@@H]1OC)n1c3ccccc3c3c4c(c5c6ccccc6n2c5c31)C(=O)NC4 [Staurosporine, staurosporine, reference compound]
- IC50 (MIA PaCa-2 cells): 249 nM
